Where “and” joins values, the source holds several entries; their conditions need not be identical. Equal entries are not always repeated.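 Results reflect a 48-hour exposure of cells in 96-well plates to compound at five concentrations. Abbreviation: GI50, concentration required for 50% inhibition of growth. TGI is the concentration that stops growth completely.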
Experiments:
Assay in all cases: DTP human tumour cell line panel, 48 h
[1] = system: M14 melanoma
[2] = system: KM12 colon
[3] = system: MOLT-4 leukemia
[4] = system: OVCAR-5 ovarian
[5] = system: CCRF-CEM leukemia
[6] = system: SK-OV-3 ovarian
[7] = system: K-562 leukemia
[8] = system: A549 NSCLC
[9] = system: BT-549 breast
[10] = system: HCT-116 colon

Row | SMILES | GI50 [1] | TGI [1] | GI50 [2] | TGI [2] | GI50 [3] | TGI [3] | GI50 [4] | TGI [4] | GI50 [5] | TGI [5] | GI50 [6] | TGI [6] | GI50 [7] | TGI [7] | GI50 [8] | TGI [8] | GI50 [9] | TGI [9] | TGI [10] | GI50 [10]
1 | COc1ccc(OC)c(NCC(=O)n2nc(/C=C\c3ccc(O)c(OC)c3)cc2/C=C\c2ccc(O)c(OC)c2)c1 | 2.02 µM | 6.18 µM | 1.81 µM | 4.92 µM | 1.11 µM | 9.21 µM | 2.35 µM | 5.54 µM | 0.474 µM | > 100 µM | 2.38 µM | 6.23 µM | 0.729 µM | > 100 µM | 3.4 µM | 33.1 µM | 1.44 µM | 5.7 µM |  | 
2 | O=C1NC(=O)c2c1n(Cc1ccccc1)c(=O)n2Cc1ccccc1 |  | > 100 µM |  | > 100 µM |  | > 100 µM |  | > 100 µM |  | > 100 µM |  | > 100 µM |  | > 100 µM |  | > 100 µM |  |  | > 100 µM | 
3 | CCc1ccccc1NC(=O)c1cccc([N+](=O)[O-])c1O |  | > 100 µM |  | 48.6 µM |  | > 100 µM |  | 65.1 µM |  | > 100 µM |  | > 100 µM |  | > 100 µM |  | > 100 µM |  |  | 87.5 µM | 
4 | Cc1nc(N)nc(CCC(=O)Nc2cccc(C(F)(F)F)c2)c1-c1ccc(Cl)cc1 |  | > 100 µM |  | > 100 µM |  | > 100 µM |  | > 100 µM |  | > 100 µM |  | > 100 µM |  | > 100 µM |  | > 100 µM |  |  | > 100 µM | 
5 | O=C1NC2=C(CCCCC/C2=N\O)C12CCCCCC2 |  | > 100 µM |  | > 100 µM |  | > 100 µM |  | > 100 µM |  | > 100 µM |  | > 100 µM |  | > 100 µM |  | > 100 µM |  |  | > 100 µM | 
6 | N#Cc1nc2c(S(=O)(=O)c3ccc(Cl)cc3)c(N)n(Nc3cccc(Cl)c3)c2nc1C#N | 0.0671 µM | 0.304 µM |  |  | 0.0162 µM | 0.103 µM | 0.0219 µM and 0.0224 µM | 0.106 µM and 0.175 µM | 0.0101 µM |  | 0.0858 µM |  | 0.0309 µM |  |  | > 100 µM | 0.131 µM |  |  | 0.015 µM
7 | CCCCCOc1ccc(/C=N/Nc2cc(C)nc3ccc(Cl)cc23)cc1 | 1.76 µM | 3.23 µM | 1.79 µM | 3.41 µM | 1.65 µM | 3.36 µM | 1.82 µM | 3.23 µM |  |  | 1.65 µM | 3.08 µM | 0.691 µM | 2.27 µM | 1.9 µM | 3.52 µM | 1.74 µM | 3.28 µM | 2.29 µM | 1.04 µM
8 | COc1cc2oc(-c3ccc(O)cc3)cc(=O)c2c(O)c1C1OC(CO)C(O)C(O)C1O (stereo unspecified) |  | > 100 µM |  | > 100 µM |  | > 100 µM |  | > 100 µM |  | > 100 µM |  | > 100 µM |  | > 100 µM |  | > 100 µM |  |  | > 100 µM | 
9 | CN[C@@H](C)C(=O)N[C@H]1CN(S(=O)(=O)c2cccc(S(=O)(=O)N3CC[C@H]4CC[C@@H](C(=O)NC(c5ccccc5)c5ccccc5)N4C(=O)[C@@H](NC(=O)[C@H](C)NC)C3)c2)CC[C@H]2CC[C@@H](C(=O)NC(c3ccccc3)c3ccccc3)N2C1=O | 34.3 µM | > 100 µM | 16.7 µM | 34.3 µM | 47 µM | > 100 µM | 18.6 µM | 39.9 µM | 1.85 µM | > 100 µM |  |  | 26.5 µM | > 100 µM | > 53.1 µM | > 100 µM | < 0.01 µM | < 0.0197 µM | 51.2 µM | 18.4 µM
